Data published in article PMC11456916, “A screen for cell envelope stress uncovers an inhibitor of prolipoprotein diacylglyceryl transferase, Lgt, in Escherichiacoli” (iScience, 2024).
Read-outs that look alike come from different tables or passages of the source.

Experiments:
Assay type in all cases: cell-based
human red blood cells = test: Haemolysis assay; details: 37°C, 1 h
Experimental: To determine the haemolytic activity and cytotoxicity of MAC-0452936, pooled human blood and HEK293t cells were used, respectively. Fresh pooled human blood for haemolytic assay was acquired from […] Technologies, whilst, HEK293t cells were originally acquired from ATCC (Cat# CRL-3216) and were regularly grown in […] (DMEM) with 10% fetal bovine serum (FBS), L-glutamine and incubated at 37°C. Cell lines are regularly tested for mycoplasma contamination.
Haemolytic activity of MAC-0452936 was assessed as described previously. Fresh human blood (10 mL, Stem Cell Technologies, USA) was centrifuged at 4,000 rpm for 10 min. The supernatant was discarded, and the pellet was rinsed three times with 1× PBS. Subsequently, the pellet was diluted 1:5 (v/v) in 1× PBS and RBC suspensions (0.5 mL each) were incubated with varying concentrations of test compounds at 37°C for 1 h. Following this, the cell suspensions were centrifuged at 5,000g for 10 min and the supernatant was meticulously collected without disturbing the pellet. Hemolysis was assessed by measuring the absorbance of the released hemoglobin in the supernatant at 540 nm using a spectrophotometer. Triton X-100 (0.1%) was used as the positive control causing 100 per cent hemolysis. All experiments were performed in triplicates.

S. Typhimurium SL1344 = test: MIC assay with or without SPR741, S. Typhimurium; details: Salmonella enterica
Experimental: We next sought to determine whether we could achieve growth inhibition of wild-type E. coli using MAC-0452936 and an antibiotic adjuvant. […] To that end, we determined the MIC of MAC-0452936 against wild-type E. coli in the presence and absence of a sub-MIC concentration of SPR741 (Figure S8B). […] We leveraged this combination to characterize the spectrum of activity of MAC-0452936 against a panel of Gram-negative pathogens (Table 2). In the presence of 8 μg/mL SPR741, we observed MAC-0452936 activity against the clinical E. coli isolates C0244 and CFT073 at 2 μg/mL as well as against Salmonella Typhimurium SL1344 at 4 μg/mL.
For MIC assays, cultures of bacteria were grown in LB broth. Overnight cultures were diluted (1:100) into fresh LB media and grown to the mid-log phase of growth (OD600 ∼0.5). Subcultures were then normalized to an OD600 of 0.1, and diluted (1:5000) into assay media. Assay plates were then incubated for 18 h at 37°C, then OD600 was measured using a Biotek Neo plate reader.

E. coli ΔtolC-pore Δlpp = test: MIC in lpp deletion background; details: E. coli ΔtolC-pore Δlpp versus E. coli ΔtolC-pore
Source text: We next turned to genetic approaches to confirm the mechanism of action of MAC-0452936. […] To that end, we screened the E. coli CRISPRi collection in the ΔtolC-pore genetic background with a sub-inhibitory concentration of MAC-0452936 and measured the fitness of all 356 CRISPRi mutants (Figure 4C and Data S4). […] Depletion of Lgt by CRISPRi provided supporting evidence that MAC-0452936 targeted Lgt in E. coli; however, we sought to confirm this observation using a parallel genetic approach. We hypothesized that MAC-0452936 potency would also be affected by high-copy expression of lgt. To that end, we introduced either an arabinose inducible copy of lgt supplied on the pCHAP9231 plasmid[48] or the pBAD19s plasmid as a control into E. coli ΔtolC-pore and tested the potency of MAC-0452936 (Figure 4E). Induction of lgt expression with arabinose suppressed the activity of MAC-0452936 by about 8-fold. […] To test this hypothesis, we constructed E. coli ΔlgtΔtolC-pore with pCHAP9231[48] so that lgt expression was driven solely by arabinose from the plasmid. […] To test this observation with MAC-0452936, we introduced an lpp deletion into our screening strain E. coli ΔtolC-pore and assessed the activity of our Lgt inhibitor in this mutant background. […]

[1] = test system: E. coli ΔtolC-pore harboring pPromrcsA-GFP-mobile; test: Secondary screen of bioactive small molecules for rcsA bioreporter induction (agar diffusion); details: 100 nL of 10 mM stock spotted on MOPS minimal agar, visual analysis
Source text: To identify small molecules that act on the Gram-negative cell envelope, a set of 797 bioactive compounds that were previously identified to be antibacterial against efflux-deficient hyper-permeable E. coli (E. coli ΔtolC-pore) was screened to determine those that can induce the rcsA bioreporter on MOPS minimal medium. E. coli ΔtolC-pore is deficient in TolC-mediated drug efflux and expresses an outer-membrane pore encoded by fhuA,[46]^,[47] thereby allowing the capture of additional antibacterial chemical scaffolds that would normally be subject to efflux or are unable to traverse the E. coli outer membrane. As the compounds in the bioactive compound collection were all antibacterial at varying inhibitory concentrations, we conducted this secondary screen using a modified solid agar diffusion assay. This enabled testing of these antibacterial small molecules at a range of concentrations, which is often required to assess bioreporter induction. To that end, 100 nL aliquots of compounds from screening library plates were deposited onto discrete positions on MOPS agar impregnated with E. coli ΔtolC-pore harboring the reporter (Figure 3A). Compounds that induced reporter expression were determined through visual analysis of the screening plates following overnight growth by looking for signature green “halos” proximal to the zones of inhibition (Figure S4). […]

SMILES: COc1ccc(C(=O)O/N=C(\c2cccs2)C(C)(C)C)cc1 [MAC-0452936, (Z)-2-Pivaloylthiophene O-(4-methoxybenzoyl) oxime]
- hemolysis of human red blood cells (human red blood cells): did not observe hemolysis
- MIC (S. Typhimurium SL1344; read-out: MIC, S. Typhimurium SL1344 + 0 μg/mL SPR741): > 64 µg/mL
- MIC (S. Typhimurium SL1344; read-out: MIC, S. Typhimurium SL1344 + 8 μg/mL SPR741): 4 µg/mL
- sensitization by deletion of lpp (E. coli ΔtolC-pore Δlpp): 2 fold
- rcsA bioreporter (GFP) induction in secondary screen [1]: induced pPromrcsA-GFP
